Data published in patent US12239644B2, “Composition for prevention or treatment of macular degeneration” (KYUNGPOOK NATIONAL UNIVERSITY INDUSTRY-ACADEMIC COOPERATION …, priority 2018, dated 2025).
Read-outs that look alike come from different tables or passages of the source.

Tests used:
[1] = tested on: VEGF; conditions: ARPE-19 medium
Protocol: ARPE-19 cells were seeded into 60-mm dishes and incubated overnight to adhere to the dishes. On the next day, the medium was replaced with serum-free medium. The cells were treated with fursultiamine-HCl (Toronto research chemical, F865230) or a vehicle (DMSO, Sigma-Aldrich) at the specific concentrations of 0 μM, 50 μM, and 100 μM and then exposed to 1% oxygen condition in a hypoxic chamber (INVIVO2 400, Baker). After hypoxic exposure for 4-6 hours, the cells were lysed with a protein lysis buffer and protein isolation from the lysate was conducted.
After 12 hours later, the medium was recovered and secreted levels of VEGF in the medium were measured using human VEGF enzyme linked immunoassay (ELISA) (R&D systems). Quantitation methods and concentration calculations were conducted according to the manufacturer's manual. Statistical analyses were performed using the Prism program, with statistical significance defined as p<0.05.

[2] = tested on: HIF-1α; conditions: ARPE-19 cells, 1% oxygen 4-6 hours, fursultiamine-HCl 20, 50, 100 μM
Protocol: After hypoxic exposure for 4-6 hours, the cells were lysed with a protein lysis buffer and protein isolation from the lysate was conducted.

[3] = tested on: laser-induced choroid neovascularization (CNV) models; conditions: C57BL/6J mice, 50 mg/kg orally for 8 days, one week after laser
Protocol: (§1) Statistical analyses were performed using the Prism program, with statistical significance defined as p<0.05.

[4] = tested on: laser-induced CNV models; conditions: C57BL/6J mice, 50 mg/kg orally for 8 days, one week after laser
Protocol: as §1

[5] = tested on: ARPE-19 cells; conditions: ARPE-19, LPS 10 ug/ml + fursultiamine 50 uM (24 h)
Protocol: To be specific, ARPE-19 cells were seeded onto 96-well XF plates, with the exchange of a fresh medium every two days. On day 5 after cell seeding, the cells were treated with 10 μg/ml LPS (lipopolysaccharides, Sigma-Aldrich) and then with 50 μM fursultiamine on day 6. On day 7, the medium was exchanged with an XF medium (Seahorse XF DMEM medium, Agilent) and the plates were left for 30 min at 37° C. in a non-CO2 incubator.
In order to assess mitochondrial spare capacity, the following mitochondrial electron transport inhibitors and respiratory uncouplers were used in corresponding steps: oligomycin (2 μM), FCCP (0.5 μM), rotenone (2 μM), and antimycin A (2 μM).
The oxygen consumption rate (OCR) was measured using an XFe96 analyzer (Agilent) according to the manufacturer's manual.

[6] = tested on: choroidal vascular endothelial cells; conditions: C57BL/6J choroid/sclera in Matrigel, day 3 to 5
Protocol: Effects of fursultiamine on the growth of choroidal vascular endothelial cells were evaluated by the ex vivo mouse choroid sprouting assay for age-related macular degeneration.
The eyeball was resected from C57BL/6J mice (Jackson Laboratory) at 3 or 4 weeks of age and the choroid/sclera was separated therefrom and sectioned into a size of 1 mm×1 mm. After being thawed on ice, Matrigel (Becton Dickinson, BD matrigel) in a liquid state was added in an amount of 300 μl to each well of 24-well plates and one of the cut choroid/sclera segments was seeded in the Matrigel in each well. Then, Matrigel was solidified for 10 min in a 37° C. incubator before adding 500 μl of an EGM medium (Lonza, Endothelial Growth Medium) to each well.
Subsequently, the growth of vascular endothelial cells was induced in a 37° C. incubator. The medium was exchanged every two days with a fresh one containing 20 μM or 50 μM fursultiamine-HCl. The growth of vascular endothelial cells from the choroid was monitored from the day of seeding the choroid/sclera and observed on day 3 to 5. The sprouting distances were measured at a total of 4 sites using the ImageJ software and averaged. Statistical analyses were performed with the Prism program, with statistical significance defined as p<0.05.

## CC(=C(CCO)SSCC1CCCO1)N(C=O)Cc1cnc(C)nc1N (stereo in doubt) [Fursultiamine, thiamine tetrahydrofurfuryl disulfide]
[1]; 1% O2, Fursultiamine 50 μM
  VEGF: 163.4 ± 7.4 pg/mL
[1]; 1% O2, Fursultiamine 100 μM
  VEGF: 47.4 ± 4.6 pg/mL
[2]
  expression of HIF-1α upregulated in the hypoxic condition: reduced
[3]
  vascular leakage for the late phase: decreased
[4]
  Lesion size (10^−3mm^2): 15.7 ± 1.0 10^−3mm^2
[5]
  OCR (%) (mitochondrial spare capacity): 189.438 ± 21.392%
[6]; Fursultiamine 20 uM
  Sprouting range (pixels): 229.926 ± 28.348 pixels
[6]; Fursultiamine 50 uM
  Sprouting range (pixels): 126.713 ± 22.810 pixels
